The results in this text go back to ChEMBL document CHEMBL1201862, “PubChem BioAssay data set” (2004).

SMILES strings stand for the structures. Where a name gives a salt, the structure may show the parent alone. Calls of active or inactive are those of the source.

Series [1] in a line: THP-1 cell cytotoxicity, dose response, cytotoxicity control for non-replicating M. tuberculosis project (AID 489025). In kind it is functional.
The nature of series [2]: viability of HCT116 lacking mutant beta-catenin – cell-based, human colon tumor, dose response (AID 1045).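 Note: HCT116 colon tumor cells with beta catenin knocked out; cells exposed to compound for 60 hours.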 Type of series: functional.
The nature of series [3]: HEK-293T cell viability reduction – luminescence, B-cell screen hits, cytotoxicity control for BCR NF-kB inhibitor project, dose response (AID 489021).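 Note: HEK-293T cells carrying an NF-kB luciferase reporter; cells exposed to compound for about 14 hours before viability readout.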 Type of series: functional, cell-based.
The nature of series [4]: viability of PTEN-deleted HCT116 cells – cell-based, HCT116 PTEN knockout, dose response (AID 1047).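 Note: HCT116 colon tumor cells with PTEN knocked out; cells exposed to compound for 60 hours before readout; potency for loss of cell viability measured by luminescence.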 In kind it is functional.
Series [5] in a line: Vero E6 cell cytotoxicity, dose response, cytotoxicity control for non-replicating M. tuberculosis project, secondary assay (AID 492998). In kind it is functional, VeroE6. The note with it: Vero C1008.
Series [6] deals with HEK293. The experiment in a line: cells. The note with it: Homo sapiens.
In series [7] the test system is HEK293. The experiment in a line: cells. The note with it: Homo sapiens. This is another data set of the same source.
Series [8] can be described thus: viability of uninfected HEp-2 cells – cell-based, HTS, cytotoxicity control for RSV inhibitor project, dose response (AID 2410). Type of series: functional. As to conditions: human respiratory syncytial virus.
The nature of series [9]: blockers of HIV-1 ZM109 envelope-driven cell-cell fusion – HeLa effector, CEM target cells, luciferase, cherry-pick, dose response (AID 652058).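 Note: luciferase signal from HIV-1 Env mediated cell-cell fusion of effector and target cells.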 Type of series: functional, cell-based.
The target of series [10] is T1, Microphthalmia-associated transcription factor (Homo sapiens, UniProt O75030).
T1 sequence (O75030 whole entry): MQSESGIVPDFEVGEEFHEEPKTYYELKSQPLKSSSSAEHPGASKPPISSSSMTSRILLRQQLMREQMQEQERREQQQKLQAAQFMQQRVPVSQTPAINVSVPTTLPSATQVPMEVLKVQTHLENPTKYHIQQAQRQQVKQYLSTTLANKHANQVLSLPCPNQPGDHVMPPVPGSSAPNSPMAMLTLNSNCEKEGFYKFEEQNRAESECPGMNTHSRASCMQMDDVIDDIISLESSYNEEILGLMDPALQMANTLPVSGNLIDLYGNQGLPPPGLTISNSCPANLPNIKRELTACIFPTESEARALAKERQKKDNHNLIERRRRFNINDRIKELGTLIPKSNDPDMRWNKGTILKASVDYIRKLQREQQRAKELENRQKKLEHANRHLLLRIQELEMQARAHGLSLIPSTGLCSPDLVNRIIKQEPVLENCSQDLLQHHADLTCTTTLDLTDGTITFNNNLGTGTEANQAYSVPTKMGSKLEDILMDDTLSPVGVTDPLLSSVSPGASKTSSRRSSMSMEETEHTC
Kind of series: reducers of TRPM1 reporter luminescence, concentration series – cell-based, SK-MEL-5, cherry-picked, set 3, MITF inhibitor project, dose response (AID 493073).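 Note: SK-MEL-5 melanoma cells with luciferase driven by the MITF target TRPM1 promoter.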 In kind it is functional.

A short description of series [11]: HIV-1 AD8 envelope cell-cell fusion blockers – cherry-pick, dose response (AID 652062).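 Note: luciferase signal from cell-cell fusion driven by HIV-1 clade B AD8 Env; potency is for inhibitors of fusion seen as a drop in luminescence.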 Type of series: functional, cell-based.
The target of series [12] is Dual specificity tyrosine-phosphorylation-regulated kinase 1A (Rattus norvegicus, UniProt Q63470). In kind it is biochemical, Homo sapiens.
The nature of series [13]: blockers of HIV-1 envelope-mediated cell-cell fusion – cherry-pick, dose response (AID 652057). Type of series: functional, cell-based.
The nature of series [14]: blockade of melanocortin 4 receptor signaling – cell-based, plate reader, cherry pick, counter-screen for LGR2 antagonist project, dose response (AID 743444).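 Note: transfected HEK 293 cells stimulated with alpha-MSH peptide; potency of inhibitors of the alpha-MSH evoked signal.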 Type of series: functional.
Series [15] can be described thus: off-target signal loss in HeLa-CEM21 co-culture – HeLa F-luc CTL cells, cherry-picked, counter-screen for HIV-1 Env fusion inhibitor project, dose response (AID 652040).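 Note: potency for signal decrease marking cytotoxic or nonspecific inhibition.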 In kind it is functional, cell-based.
In series [16] the test system is Jurkat. Kind of series: blockers of NF-kB activation in T cells – Jurkat, luciferase reporter, luminescence, B- and T-cell, dose response (AID 489004).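 Note: NF-kB luciferase reporter Jurkat cells stimulated with PMA plus ionomycin.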 In kind it is functional, cell-based. The note with it: Homo sapiens.
Series [17] in a line: HEK-293T viability loss, compound-treated – cell-based, uHTS hits, cytotoxicity control for B/T-cell NF-kB inhibitor project, dose response (AID 489019).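 Note: IC50 reflects cytotoxicity as loss of cell viability.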 Type of series: functional.
In series [18] the target is Glucose-6-phosphate 1-dehydrogenase (Homo sapiens, UniProt P11413). The experiment in a line: inhibition of Homo sapiens G6PD, dose series – biochemical, fluorescence, selectivity assay for P. falciparum G6PD inhibitor project, dose response (AID 504792). In kind it is functional.
Series [19] addresses CAAX prenyl protease 1 (Saccharomyces cerevisiae S288c, UniProt P47154). Kind of series: yeast CAAX protease Ste24 inhibition – biochemical, S. cerevisiae, plate reader, cherry-pick, dose response (AID 488815).
In series [20] the target is T2, CAAX prenyl protease 2 (Saccharomyces cerevisiae S288c, UniProt Q03530).
T2 sequence (Q03530 whole entry): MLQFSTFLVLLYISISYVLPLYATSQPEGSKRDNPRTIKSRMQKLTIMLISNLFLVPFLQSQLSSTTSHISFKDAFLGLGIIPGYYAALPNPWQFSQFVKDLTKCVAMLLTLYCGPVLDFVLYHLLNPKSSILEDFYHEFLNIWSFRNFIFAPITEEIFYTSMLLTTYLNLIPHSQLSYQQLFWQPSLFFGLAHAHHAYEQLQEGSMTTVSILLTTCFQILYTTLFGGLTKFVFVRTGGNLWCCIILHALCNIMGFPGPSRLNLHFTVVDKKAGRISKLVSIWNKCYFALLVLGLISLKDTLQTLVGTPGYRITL
Type of series: biochemical.

Series [21] addresses Voltage-gated inwardly rectifying potassium channel KCNH2 (Homo sapiens, UniProt Q12809). The note with it: Potency.
Series [22] addresses T3, Cytochrome P450 1A2 (Homo sapiens, UniProt P05177).
T3 sequence (P05177 whole entry): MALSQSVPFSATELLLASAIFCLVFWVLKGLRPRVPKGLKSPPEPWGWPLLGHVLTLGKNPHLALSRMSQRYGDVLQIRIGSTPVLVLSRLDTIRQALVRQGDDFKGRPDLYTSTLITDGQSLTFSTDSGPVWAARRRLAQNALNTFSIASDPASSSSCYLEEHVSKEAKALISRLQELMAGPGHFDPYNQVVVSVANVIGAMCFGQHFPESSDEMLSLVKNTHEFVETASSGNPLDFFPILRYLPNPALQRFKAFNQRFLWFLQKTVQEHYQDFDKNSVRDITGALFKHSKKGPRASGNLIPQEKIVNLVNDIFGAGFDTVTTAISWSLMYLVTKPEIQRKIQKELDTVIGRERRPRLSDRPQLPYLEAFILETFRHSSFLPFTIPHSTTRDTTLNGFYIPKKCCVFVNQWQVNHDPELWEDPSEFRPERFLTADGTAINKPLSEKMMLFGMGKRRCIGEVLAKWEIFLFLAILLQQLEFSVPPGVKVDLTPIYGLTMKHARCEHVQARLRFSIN

The target in series [23] is Cytochrome P450 2C9 (Homo sapiens, UniProt P11712).
The target in series [24] is Cytochrome P450 2C19 (Homo sapiens, UniProt P33261). The experiment in a line: Cytochrome panel assay with activity outcomes. Panel member name: p450-cyp2c19 Compounds with AC50 equal or less than 10 uM are considered active. In kind it is functional. The note with it: read-out: AC50.
The target of series [25] is Cytochrome P450 3A4 (Homo sapiens, UniProt P08684).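 Note: CYP3A4 tested as one member of a cytochrome P450 panel screen.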
Cytochrome P450 3A4, sequence (P08684 whole entry): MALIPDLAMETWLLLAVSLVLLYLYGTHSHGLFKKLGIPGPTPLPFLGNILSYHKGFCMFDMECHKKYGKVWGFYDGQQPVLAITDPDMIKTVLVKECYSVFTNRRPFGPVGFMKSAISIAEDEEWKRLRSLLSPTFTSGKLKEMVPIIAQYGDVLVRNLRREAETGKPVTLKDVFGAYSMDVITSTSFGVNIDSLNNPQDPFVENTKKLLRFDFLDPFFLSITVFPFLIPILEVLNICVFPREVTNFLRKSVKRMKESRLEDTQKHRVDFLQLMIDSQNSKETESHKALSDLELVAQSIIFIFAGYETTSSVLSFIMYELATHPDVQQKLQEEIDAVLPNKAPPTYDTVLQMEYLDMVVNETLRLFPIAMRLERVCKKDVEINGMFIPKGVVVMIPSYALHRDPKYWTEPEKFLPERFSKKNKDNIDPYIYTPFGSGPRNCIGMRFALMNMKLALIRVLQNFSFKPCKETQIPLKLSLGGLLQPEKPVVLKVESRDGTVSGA

CAAX prenyl protease 1, sequence (P47154 whole entry): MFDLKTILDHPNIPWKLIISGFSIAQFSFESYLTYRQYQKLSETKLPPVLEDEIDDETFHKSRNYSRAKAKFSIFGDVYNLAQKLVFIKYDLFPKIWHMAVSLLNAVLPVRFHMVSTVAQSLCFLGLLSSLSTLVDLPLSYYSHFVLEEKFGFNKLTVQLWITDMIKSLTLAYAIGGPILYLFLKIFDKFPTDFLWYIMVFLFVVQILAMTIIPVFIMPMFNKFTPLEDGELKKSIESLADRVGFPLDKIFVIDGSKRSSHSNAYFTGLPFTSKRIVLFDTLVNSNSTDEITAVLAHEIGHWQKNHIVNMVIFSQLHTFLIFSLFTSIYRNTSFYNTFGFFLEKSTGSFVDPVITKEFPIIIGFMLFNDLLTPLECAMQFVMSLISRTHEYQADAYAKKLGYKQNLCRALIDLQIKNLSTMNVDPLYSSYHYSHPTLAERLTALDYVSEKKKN
Voltage-gated inwardly rectifying potassium channel KCNH2, sequence (Q12809 whole entry): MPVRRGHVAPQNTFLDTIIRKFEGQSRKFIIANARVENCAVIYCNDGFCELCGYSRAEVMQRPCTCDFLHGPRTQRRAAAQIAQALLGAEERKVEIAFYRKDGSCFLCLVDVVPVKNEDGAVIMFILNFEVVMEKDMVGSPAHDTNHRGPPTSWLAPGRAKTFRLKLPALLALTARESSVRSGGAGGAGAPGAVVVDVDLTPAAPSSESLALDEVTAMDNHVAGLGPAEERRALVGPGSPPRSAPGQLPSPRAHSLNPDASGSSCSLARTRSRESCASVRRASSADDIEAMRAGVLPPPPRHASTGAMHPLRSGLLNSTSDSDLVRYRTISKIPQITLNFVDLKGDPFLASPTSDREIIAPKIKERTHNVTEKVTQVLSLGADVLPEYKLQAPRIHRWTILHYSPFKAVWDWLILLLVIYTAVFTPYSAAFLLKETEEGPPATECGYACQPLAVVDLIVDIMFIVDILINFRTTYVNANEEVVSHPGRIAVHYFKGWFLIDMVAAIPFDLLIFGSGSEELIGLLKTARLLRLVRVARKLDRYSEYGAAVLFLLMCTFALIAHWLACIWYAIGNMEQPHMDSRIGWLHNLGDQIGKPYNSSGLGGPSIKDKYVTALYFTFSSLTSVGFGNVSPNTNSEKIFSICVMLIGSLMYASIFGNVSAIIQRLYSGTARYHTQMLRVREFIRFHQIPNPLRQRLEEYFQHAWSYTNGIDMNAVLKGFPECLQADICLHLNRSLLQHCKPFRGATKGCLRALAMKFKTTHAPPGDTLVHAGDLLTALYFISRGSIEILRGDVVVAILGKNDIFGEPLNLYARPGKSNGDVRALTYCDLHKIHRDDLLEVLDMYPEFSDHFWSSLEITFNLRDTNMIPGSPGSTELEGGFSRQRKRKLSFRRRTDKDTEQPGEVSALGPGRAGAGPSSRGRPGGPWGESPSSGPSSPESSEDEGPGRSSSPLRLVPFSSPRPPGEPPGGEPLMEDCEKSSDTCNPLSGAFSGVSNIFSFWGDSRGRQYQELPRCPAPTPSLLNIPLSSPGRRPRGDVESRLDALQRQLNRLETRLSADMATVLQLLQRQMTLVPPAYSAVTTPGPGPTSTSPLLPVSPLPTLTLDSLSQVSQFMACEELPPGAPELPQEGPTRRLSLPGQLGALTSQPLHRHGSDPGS
Cytochrome P450 2C19, sequence (P33261 whole entry): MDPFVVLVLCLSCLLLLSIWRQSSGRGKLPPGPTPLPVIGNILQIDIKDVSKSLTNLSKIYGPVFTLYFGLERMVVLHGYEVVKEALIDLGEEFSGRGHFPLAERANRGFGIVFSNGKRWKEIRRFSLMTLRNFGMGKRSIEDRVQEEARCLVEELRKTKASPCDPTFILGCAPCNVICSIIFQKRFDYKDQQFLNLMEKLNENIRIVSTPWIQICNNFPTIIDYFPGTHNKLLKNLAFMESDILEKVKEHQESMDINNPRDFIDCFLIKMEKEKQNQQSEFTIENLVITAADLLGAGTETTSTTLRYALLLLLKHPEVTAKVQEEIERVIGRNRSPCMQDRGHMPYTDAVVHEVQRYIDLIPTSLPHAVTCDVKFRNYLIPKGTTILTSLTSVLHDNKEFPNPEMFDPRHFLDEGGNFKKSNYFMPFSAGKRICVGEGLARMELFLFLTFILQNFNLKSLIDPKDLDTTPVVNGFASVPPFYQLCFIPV
Glucose-6-phosphate 1-dehydrogenase, sequence (P11413 whole entry): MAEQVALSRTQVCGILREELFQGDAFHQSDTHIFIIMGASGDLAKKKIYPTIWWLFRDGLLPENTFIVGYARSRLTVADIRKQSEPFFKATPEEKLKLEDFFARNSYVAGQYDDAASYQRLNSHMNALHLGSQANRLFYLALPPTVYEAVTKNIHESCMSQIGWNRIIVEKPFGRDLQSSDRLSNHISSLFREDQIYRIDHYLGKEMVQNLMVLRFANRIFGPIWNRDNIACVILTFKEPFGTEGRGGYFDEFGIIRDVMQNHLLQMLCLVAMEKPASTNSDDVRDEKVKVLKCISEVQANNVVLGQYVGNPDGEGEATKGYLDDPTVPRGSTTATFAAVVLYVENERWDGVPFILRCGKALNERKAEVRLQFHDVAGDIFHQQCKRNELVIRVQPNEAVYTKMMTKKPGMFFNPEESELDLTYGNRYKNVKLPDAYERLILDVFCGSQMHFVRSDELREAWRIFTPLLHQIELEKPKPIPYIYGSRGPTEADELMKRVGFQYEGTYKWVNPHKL
Cytochrome P450 2C9, sequence (P11712 whole entry): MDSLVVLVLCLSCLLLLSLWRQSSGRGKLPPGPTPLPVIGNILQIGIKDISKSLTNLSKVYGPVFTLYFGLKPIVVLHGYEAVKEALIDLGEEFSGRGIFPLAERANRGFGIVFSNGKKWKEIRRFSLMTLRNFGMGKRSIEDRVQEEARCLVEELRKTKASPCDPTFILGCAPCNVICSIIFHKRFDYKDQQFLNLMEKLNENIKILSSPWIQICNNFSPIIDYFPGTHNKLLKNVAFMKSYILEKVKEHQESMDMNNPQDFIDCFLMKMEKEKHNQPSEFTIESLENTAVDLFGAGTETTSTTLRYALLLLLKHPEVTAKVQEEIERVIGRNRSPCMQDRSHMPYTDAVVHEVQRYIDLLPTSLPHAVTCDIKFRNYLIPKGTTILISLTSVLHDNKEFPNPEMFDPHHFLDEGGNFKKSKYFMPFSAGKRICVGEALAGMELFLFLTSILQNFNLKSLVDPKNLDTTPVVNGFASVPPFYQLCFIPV

Consider `CC1=CC(C)(C)Nc2ccc(OC(=O)CN3C(=O)c4ccccc4C3=O)cc21`, for which the CC50 is 6.68 µM (active) in series [1], 13.6 µM (active) in series [5] and 6.94 µM (active) in series [8]. Besides, the half-maximal effective concentration (EC50) in [2] was 5.85 µM (active); in [4], 9.51 µM (active); in series [6], > 59.6 µM (inactive); in series [7] it was > 59.6 µM (inactive). In addition, the IC50 in series [3] is 58.6 µM (inactive).
As for `Cc1ccc2nc(NC(=O)CCCC(=O)O)sc2c1`, the AC50 is 0.62 µM (active) in series [9]; 12.1 µM (active) in [10]; 1.02 µM (active) in series [11]; 4.63 µM (active) in series [12]; 1.42 µM (active) in series [13]; 44.1 µM (active) in series [14]. Also, the AC50 in series [15] was 2.82 µM (active). The IC50 is 0.8 µM (active) in series [16] and > 80 µM (inactive) in series [17].
As for `Cc1[nH]c2ccccc2c1/C=N/NC(=O)c1cccc(S(=O)(=O)Nc2ccccc2Cl)c1`, the IC50 in series [18] was > 80 µM (inactive).
Consider `NC(=O)CSC1=Nc2ccccc2C2=NC(c3ccccc3)C(=O)N12` (configuration not stated), for which the AC50 was 5.41 µM (active) in series [19] and 4.61 µM (active) in series [20].
Consider `CC(CCc1ccccc1)NCC(O)c1ccc(O)c(C(N)=O)c1` (configuration not stated) [LABETALOL HYDROCHLORIDE], for which the concentration at half-maximal activity (AC50) in [19] is 7.7 µM (active); in [20], 15.3 µM (active); in series [21], 15.8 µM (inconclusive).
Turning to `CCCCC1(C)OC(=O)C(=Cc2ccc(N(C)C)cc2)C(=O)O1` (configuration not stated), the half-maximal activity concentration (AC50) in series [22] is 14.1 µM (inconclusive); in [23] it was “inconclusive”; in series [24], 28.2 µM (inconclusive); in series [25], 1 µM (inconclusive).
